US9073892B2, “Indazolyl triazol derivatives” (Merck Serono S.A., priority 2010, dated 2015)
pIC50: −log10 of the molar value.

Tests used:
[1] = system: IL1β-induced IL8 release in THP1 cells; test: IRAK IL8 secretion functional assay; type: cell-based; details: Homo sapiens; THP-1 cells, IL1β 100 ng/ml overnight, IL8 by HTRF; read-out: IC50, Secretion THP-1/IL-β induced IL8 release
Source text: IRAK IL8 Secretion Functional Assay:
THP1 cells are human monocytes derived from acute monocytic leukemia. IL1β receptor expressed on the surface membrane of THP1 cells induced IL8 release. IRAKs are kinase signaling downstream of TLRs and TNF, IL-18, IL-33 and IL-1 receptors.
In cells, IRAK4 is upstream of IRAK1.
The Human IL8 Kit, provided by CysBio International based in Bagnols/Cèze FR, allows for the quantitative determination of IL-8 in cell-culture supernatants.
Anti-cytokine IL8 antibodies are respectively labeled with europium Cryptate and XL665. Upon their binding to IL-8 molecules, the two antibodies come into close proximity, allowing FRET (Fluorescence Resonance Energy Transfer) to occur. This FRET increases proportionally to IL-8 concentrations and be converted in IL8 pg amounts.
THP-1 cells are seeded on Day 1 in 384 well plate with RPMI 1640 at a density of 30 000 cells/well. Compounds 4×/2% DMSO (range of concentrations from 20 μM to 1 nM) and IL1β 4× at 100 ng/ml final are added to cells overnight at 37° C., 5% CO2. Measurement of IL-8 secretion is done by mixing on Day2 10 μl of supernatant with 10 μl of a mix solution of europium Cryptate and XL665 (v:v) as described by supplier.
HTRF (homogeneous time resolved fluorescence) signal is measured after 3 hours incubation time at 30° C. with a BMG Pherastar reader or equivalent.

IRAK1/4 human = system: T1, IRAK1/4 human; test: IRAK1/4 phosphorylation IC50 (enzymatic assay, table 2); type: biochemical; details: human IRAK1/4 phosphorylation
T1 construct: fused on or other part: His tag and TEV cleavage site at the N-terminus
Outline: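 Inhibition values are IC50s. They come from 384-well reactions in which His-TEV-tagged human IRAK-1 or IRAK-4 (the latter with STK1-biotin peptide) met ATP and compounds in DMSO at 20 µM to 1 nM. The buffer was 50 mM Hepes pH7.0 containing MgCl2, DTT, EGTA and BSA, and incubation lasted 2 or 3 hours.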

Row | Structure (SMILES) | pIC50 [1] | pIC50 (IRAK1/4 human)
1 | O=C(c1ccc(-n2cc(-c3n[nH]c4ccccc34)nn2)cc1)N1CCCCC1 [Example 38, 3-{1-[4-(piperidin-1-ylcarbonyl)phenyl]-1H-1,2,3-triazol-4-yl}-1H-indazole] | 6.00 to 7.00 | 5.30 to 6.00
2 | CC(=O)N1CCN(C(=O)c2ccc(-n3cc(-c4n[nH]c5ccccc45)nn3)cc2)CC1 [Example 39, 3-(1-{4-[(4-acetylpiperazin-1-yl)carbonyl]phenyl}-1H-1,2,3-triazol-4-yl)-1H-indazole] | 6.00 to 7.00 | 6.00 to 7.00
3 | O=C(NCCCN1CCCC1)c1ccc(-n2cc(-c3n[nH]c4ccccc34)nn2)cc1 [Example 40, 4-[4-(1H-indazol-3-yl)-1H-1,2,3-triazol-1-yl]-N-(3-pyrrolidin-1-ylpropyl)benzamide] | 6.00 to 7.00 | 6.00 to 7.00
4 | CCN(CC)CCCNC(=O)c1ccc(-n2cc(-c3n[nH]c4ccccc34)nn2)cc1 [Example 42, N-[3-(diethylamino)propyl]-4-[4-(1H-indazol-3-yl)-1H-1,2,3-triazol-1-yl]benzamide] | 6.00 to 7.00 | 6.00 to 7.00
5 | CN(CCc1ccncc1)C(=O)c1ccc(-n2cc(-c3n[nH]c4ccccc34)nn2)cc1 [Example 43, 4-[4-(1H-indazol-3-yl)-1H-1,2,3-triazol-1-yl]-N-methyl-N-(2-pyridin-4-ylethyl)benzamide] | 6.00 to 7.00 | 6.00 to 7.00
6 | O=C(NCCN1CCCCC1)c1ccc(-n2cc(-c3n[nH]c4ccccc34)nn2)cc1 [Example 44, 4-[4-(1H-indazol-3-yl)-1H-1,2,3-triazol-1-yl]-N-(2-piperidin-1-ylethyl)benzamide] | 6.00 to 7.00 | 6.00 to 7.00
7 | CN1CCCN(C(=O)c2ccc(-n3cc(-c4n[nH]c5ccccc45)nn3)cc2)CC1 [Example 48, 3-(1-{4-[(4-methyl-1,4-diazepan-1-yl)carbonyl]phenyl}-1H-1,2,3-triazol-4-yl)-1H-indazole] | 6.00 to 7.00 | 6.00 to 7.00
8 | CCNC(=O)c1ccc(-n2cc(-c3n[nH]c4ccccc34)nn2)cc1 [Example 49, N-ethyl-4-[4-(1H-indazol-3-yl)-1H-1,2,3-triazol-1-yl]benzamide] | 6.00 to 7.00 | 6.00 to 7.00
9 | COCCNC(=O)c1ccc(-n2cc(-c3n[nH]c4ccccc34)nn2)cc1 [Example 50, 4-[4-(1H-indazol-3-yl)-1H-1,2,3-triazol-1-yl]-N-(2-methoxyethyl)benzamide] | 6.00 to 7.00 | 6.00 to 7.00
10 | O=C(NCc1ccco1)c1ccc(-n2cc(-c3n[nH]c4ccccc34)nn2)cc1 [Example 51, N-(2-furylmethyl)-4-[4-(1H-indazol-3-yl)-1H-1,2,3-triazol-1-yl]benzamide] | 5.30 to 6.00 | 6.00 to 7.00
11 | CCN1CCN(C(=O)c2ccc(-n3cc(-c4n[nH]c5ccccc45)nn3)cc2)CC1 [Example 52, 3-(1-{4-[(4-ethylpiperazin-1-yl)carbonyl]phenyl)-1H-1,2,3-triazol-4-yl)-1H-indazole] | 6.00 to 7.00 | 6.00 to 7.00
12 | O=C(NC1CC1)c1ccc(-n2cc(-c3n[nH]c4ccccc34)nn2)cc1 [Example 53, N-cyclopropyl-4-[4-(1H-indazol-3-yl)-1H-1,2,3-triazol-1-yl]benzamide] | 6.00 to 7.00 | 6.00 to 7.00
13 | CNC(=O)c1ccc(-n2cc(-c3n[nH]c4ccccc34)nn2)cc1 [Example 54, 4-[4-(1H-indazol-3-yl)-1H-1,2,3-triazol-1-yl]-N-methylbenzamide] | 6.00 to 7.00 | 6.00 to 7.00
14 | O=C(NCC1CC1)c1ccc(-n2cc(-c3n[nH]c4ccccc34)nn2)cc1 [Example 55] | 6.00 to 7.00 | 6.00 to 7.00
15 | CCN1CCN(C(=O)c2cccc(-n3cc(-c4n[nH]c5ccccc45)nn3)c2)CC1 [Example 60, 3-(1-{3-[(4-ethylpiperazin-1-yl)carbonyl]phenyl}-1H-1,2,3-triazol-4-yl)-1H-indazole] | 5.30 to 6.00 | 5.30 to 6.00
16 | CN1CCN(C(=O)Cc2cccc(-n3cc(-c4n[nH]c5ccccc45)nn3)c2)CC1 [Example 79, 3-(1-{3-[2-(4-methylpiperazin-1-yl)-2-oxoethyl]phenyl}-1H-1,2,3-triazol-4-yl)-1H-indazole] | 5.30 to 6.00 | 5.30 to 6.00

Next, values leading:

Row | pIC50 [1] | pIC50 (IRAK1/4 human) | Structure (SMILES)
17 | 6.00 to 7.00 | 6.00 to 7.00 | O=C(c1ccc(-n2cc(-c3n[nH]c4ccccc34)nn2)cc1)N1CCC(O)CC1 [Example 71, 1-{4-[4(1H-indazol-3-yl)-1H-1,2,3-triazol-1-yl]benzoyl}piperidin-ol]
18 | > 7.00 | 6.00 to 7.00 | CN(C)C1CCN(C(=O)c2ccc(-n3cc(-c4n[nH]c5ccccc45)nn3)cc2)CC1 [Example 72, 1-{4-[4-(1H-indazol-3-yl)-1H-1,2,3-triazol-1-yl]benzoyl}-N,N-dimethylpiperidin-4-amine]
19 | > 7.00 | 6.00 to 7.00 | O=C(c1ccc(-n2cc(-c3n[nH]c4ccccc34)nn2)cc1)N1CCCC(C(=O)N2CCCC2)C1 (stereo not drawn) [Example 73, 3-[1-(4-{[3-(pyrrolidin-1-ylcarbonyl)piperidin-1-yl]carbonyl}phenyl)-1H-1,2,3-triazol-4-yl]-1H-indazole]
20 | 6.00 to 7.00 | 6.00 to 7.00 | O=C(c1ccc(-n2cc(-c3n[nH]c4ccccc34)nn2)cc1)N1CCCC(CN2CCOCC2)C1 (stereo not drawn) [Example 74]
21 | 6.00 to 7.00 | 6.00 to 7.00 | O=C1CCCN1CC1CCCN(C(=O)c2ccc(-n3cc(-c4n[nH]c5ccccc45)nn3)cc2)C1 (stereo not drawn) [Example 75, 1-[(1-{4-[4-(1H-indazol-3-yl)-1H-1,2,3-triazol-1-yl]benzoyl}piperidin-3-yl)methyl]pyrrolidin-2]
22 | > 7.00 | > 7.00 | CN1CCCC2(CCCN(C(=O)c3ccc(-n4cc(-c5n[nH]c6ccccc56)nn4)cc3)C2)C1 (stereo not drawn) [Example 76, 2-{4-[4-(1H-indazol-3-yl)-1H-1,2,3-triazol-1-yl]benzoyl}-8-methyl-2,8-diazaspiro[5.5]undecane]
23 | 6.00 to 7.00 | 6.00 to 7.00 | CN1CCCC(CNC(=O)c2ccc(-n3cc(-c4n[nH]c5ccccc45)nn3)cc2)C1 (stereo not drawn) [Example 77, 4-[4-(1H-indazol-3-yl)-1H-1,2,3-triazol-1-yl]-N-[(1-methylpiperidin-3-yl)methyl]benzamide]
24 | 5.30 to 6.00 | 5.30 to 6.00 | c1cc(CCN2CCOCC2)cc(-n2cc(-c3n[nH]c4ccccc34)nn2)c1 [Example 80, 3-{1-[3-(2-morpholin-4-ylethyl)phenyl]-1H-1,2,3-triazol-4-yl}-1H-indazole]
25 | 6.00 to 7.00 | 6.00 to 7.00 | O=C(c1ccc(-n2cc(-c3n[nH]c4ccccc34)nn2)cc1F)N1CCOCC1 [Example 81, 3-{1-[3-fluoro-4-(morpholin-4-ylcarbonyl)phenyl]-1H-1,2,3-triazol-4-yl}-1H-indazole]
26 | 5.30 to 6.00 | 5.30 to 6.00 | O=C(Cc1cccc(-n2cc(-c3n[nH]c4ccccc34)nn2)c1)N1CCCC1 [Example 82, 3-{1-[3-(2-oxo-2-pyrrolidin-1-ylethyl)phenyl]-1H-1,2,3-triazol-4-yl}-1H-indazole]
27 | 6.00 to 7.00 | 5.30 to 6.00 | c1cc(CCN2CCCC2)cc(-n2cc(-c3n[nH]c4ccccc34)nn2)c1 [Example 83, 3-{1-[3-(2-pyrrolidin-1-ylethyl)phenyl]-1H-1,2,3-triazol-4-yl}-1H-indazole]
28 | 5.30 to 6.00 | > 7.00 | O=C(c1ccc(-n2cc(-c3n[nH]c4ccc(C5CCNCC5)cc34)nn2)cc1)N1CCOCC1 [Example 84, 3-{1-[4-(morpholin-4-ylcarbonyl)phenyl]-1H-1,2,3-triazol-4-yl}-5-piperidin-4-yl-1H-indazole]
29 | 5.30 to 6.00 | 5.30 to 6.00 | c1cc(CCCN2CCOCC2)cc(-n2cc(-c3n[nH]c4ccccc34)nn2)c1 [Example 86, 3-{1-[3-(3-morpholin-4-ylpropyl)phenyl]-1H-1,2,3-triazol-4-yl}-1H-indazole]
30 | 6.00 to 7.00 | 5.30 to 6.00 | c1cc(CCCN2CCCC2)cc(-n2cc(-c3n[nH]c4ccccc34)nn2)c1 [Example 88, 3-{1-[3-(3-pyrrolidin-1-ylpropyl)phenyl]-1H-1,2,3-triazol-4-yl}-1H-indazole]
31 | 5.30 to 6.00 | 6.00 to 7.00 | O=C(c1ccc(-n2cc(-c3n[nH]c4ccccc34)nn2)cc1Cl)N1CCOCC1 [Example 89, 3-{1-[3-chloro-4-(morpholin-4-ylcarbonyl)phenyl]-1H-1,2,3-triazol-4-yl}-1H-indazole]
32 | 6.00 to 7.00 | 6.00 to 7.00 | CN(C)CC1CCN(C(=O)c2ccc(-n3cc(-c4n[nH]c5ccccc45)nn3)cc2)CC1 [Example 91, 1-(1-{4-[4(1H-indazol-3-yl)-1H-1,2,3-triazol-1-yl]benzoyl}piperidin-4-yl)-N,N-dimethylmethanamine]
33 | 6.00 to 7.00 | 6.00 to 7.00 | CN(C)CCC1CCCCN1C(=O)c1ccc(-n2cc(-c3n[nH]c4ccccc34)nn2)cc1 (stereo not drawn) [Example 92]
